Laboratory results as given in patent publication US9358226B2, “Triarylmethane analogs and their use in treating cancers” (Emory University, priority 2007, dated 2016).

Assays:
[1] = test system: P. falciparum Dd2 (Multidrug Resistant); experiment: Malaria model, multidrug resistant P. falciparum; assay type: cell-based; conditions: Plasmodium falciparum, DD2; read-out: IC50 (nM) vs P. falciparum Dd2 (Multidrug Resistant)
Protocol: The compounds were tested in a malaria model using both chloroquine sensitive and multidrug resistant P. falciparum. The malaria model was the same as published in JAC Advance Access published online on Jul. 30, 2008, Journal of Antimicrobial Chemotherapy, doi:10.1093/jac/dkn315, the contents of which are hereby incorporated by reference, and the data is summarized in the table below.
Briefly, the assay involves exposing both chloroquine sensitive and multidrug resistant P. falciparum to the compounds. After one hour of exposure to the highest concentration of the compound, followed by removal of the compound, the growth of all stages of P. falciparum was observed. The reduction in the growth stages was then compared with untreated control parasites. […] The presence of strong inhibition (defined herein as 10% growth) of all parasite stages was evaluated when the parasites were exposed to various concentrations of various compounds.

[2] = test system: bEnd.3 hemangiomas; experiment: bEnd.3 hemangioma in vivo, intralesional treatment
Protocol: In order to determine if compounds that inhibit ang-2 formation in vitro would ameliorate hemangioma formation in vivo, we injected one million bEnd.3 cells subcutaneously into nine nude mice.
For each treatment condition, three mice were injected with 1,000,000 bEnd.3 cells and received intralesional injection with either vehicle control, brilliant green or gentian viol et (from left to right in photo) on days 9 and 14. Animals were euthanized on day 20, secondary to tumor burden in the control animals.
For each treatment condition, three mice were subcutaneously injected with one million bEnd.3 cells and monitored for tumor development. On day 9, tumors were measured in all nine animals, and there was no significant difference in tumor volume before the initiation of treatment. Each mouse then received intralesional injection with either 0.33 ml vehicle control, brilliant green (5 mg/kg, dissolved in […] ethanol and 900 μl intralipid) or gentian violet (5 mg/kg, dissolved in 100 μl ethanol and 900 μl intralipid) on days 9 and 14. No toxicity was noted following injection. Animals were euthanized on day 20, secondary to tumor burden in the control animals. Photos represent average tumor burden in each of the three groups (FIG. 3a), and tumor volume (mm^3) is graphically depicted (FIG. 3b). Error bars represent the standard error of the mean.

[3] = test system: bloodstream form of T. brucei; experiment: Bloodstream form of T. brucei, live cells, overnight treatment; assay type: cell-based
Protocol: These and other compounds were tested on live cells.
The experiment was conducted with one million cells of the bloodstream form of T. brucei. After over night treatment with different compounds (at concentrations of 50 and 100 μmolar), cells were counted and plotted with controls.

[4] = target: T1, Nox4 (Homo sapiens, UniProt Q9NPH5); experiment: H2O2 production, homovanillic acid assay, HEK293 Nox4-11 cells; assay type: cell-based; conditions: 1 hour 37° C.
T1 construct: expressed in transfected cells; host or cells: HEK293 Nox4-11 cells
T1 sequence (Q9NPH5 1-578): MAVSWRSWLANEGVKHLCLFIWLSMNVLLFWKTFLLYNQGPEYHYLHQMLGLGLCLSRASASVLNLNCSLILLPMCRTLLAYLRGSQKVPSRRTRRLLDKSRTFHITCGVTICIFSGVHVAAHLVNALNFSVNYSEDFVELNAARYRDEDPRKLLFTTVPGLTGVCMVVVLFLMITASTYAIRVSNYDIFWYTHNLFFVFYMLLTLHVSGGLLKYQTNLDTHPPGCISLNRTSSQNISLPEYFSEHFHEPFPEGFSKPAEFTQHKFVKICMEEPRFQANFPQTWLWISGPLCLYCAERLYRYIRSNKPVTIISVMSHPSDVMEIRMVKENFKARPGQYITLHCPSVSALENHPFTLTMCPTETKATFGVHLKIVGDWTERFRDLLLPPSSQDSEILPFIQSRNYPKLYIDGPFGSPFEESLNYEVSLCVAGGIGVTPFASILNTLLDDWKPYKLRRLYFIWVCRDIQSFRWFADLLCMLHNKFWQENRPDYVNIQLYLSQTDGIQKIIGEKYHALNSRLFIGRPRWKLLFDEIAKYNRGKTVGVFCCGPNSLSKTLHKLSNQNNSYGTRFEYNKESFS
T1 sequence (P13498 2-195 partner limits assumed): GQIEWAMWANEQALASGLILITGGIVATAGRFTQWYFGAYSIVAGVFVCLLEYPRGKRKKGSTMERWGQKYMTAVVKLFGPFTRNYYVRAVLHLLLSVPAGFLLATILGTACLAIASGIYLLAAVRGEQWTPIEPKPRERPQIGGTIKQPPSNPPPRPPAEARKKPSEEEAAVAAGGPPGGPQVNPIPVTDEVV
Protocol: After 1 hour incubation at 37° C., the reaction was stopped and H2O2 production was measured using the homovanillic acid assay. The ability of these drugs to inhibit production of H2O2 is shown as a percentage relative to the untreated control (100%). […] Optimal Nox2 activity requires phorbol 12-myristate 13-acetate stimulation whereas Nox4 activity is constitutive.
H2O2 release was measured using the homovanillic acid assay as described previously (Martyn, 2006). Briefly, 1.5-1.75×10^5 cells/well of a 12-well plate were seeded. The following day, cells were washed once with Hank's balanced salt solution and then preincubated for 15 minutes with either gentian violet (10-20 nM) or brilliant green (0.5-1.0 μM) in 1 ml of media. The cells were then washed once with Hank's balanced salt solution. Gentian violet or brilliant green was added at the same concentrations as in pretreatment to 0.5 ml of homovanillic acid assay solution (100 μM homovanillic acid assay, 4 U/ml horseradish peroxidase in Hank's balanced salt solution with Ca^2+ and Mg^2+) and incubated with the cells for 1 hour at 37° C. Cos-phox cells were additionally stimulated with 0.4 μg/ml phorbol 12-myristate 13-acetate. […] Fluorescence was read on a BioTek Synergy HT (BioTek Instruments Inc., Winooski, Vermont, […].) with an excitation of 320 nm and emission of 440 nm.

For `CN(C)c1ccc(C(=C2C=CC(=[N+](C)C)C=C2)c2ccc(N(C)C)cc2)cc1` [Gentian Violet (GV), hexamethyl pararosaniline chloride], the IC50 [1] was 0.44 nM, the “decrease in tumor size compared to control” value ([2]; 5 mg/kg intralesional on days 9 and 14, euthanized day 20) was 92.6% and the “toxicity as a result of treatment” value ([2]; mouse, in vivo, 5 mg/kg) was “Neither local nor systemic toxicity was observed”. The IC50 ([3]; Trypanosoma brucei, bloodstream form of T. brucei) was < 20 nM, the “cell survival after over night treatment” value ([3]; one million cells, 50 and 100 μmolar) was “All cells died” and the “inhibition of Nox4 activity (H2O2 production)” value [4] was “inhibited”.
